# Test results from patent US8765944B2, “Compounds for the treatment of hepatitis C” (priority 2010, dated 2014).
# System: HCV pseudoparticles
# Experiment: HCV pseudoparticle infection assay (luciferase reporter, Huh7 cells)
# Format: cell-based, HCV (genotype 1b E1 and E2 envelope)
# Settings: Hepatitis C virus, genotype 1b, Huh-7, 48 h, HCV pseudoparticles (genotype 1b), luciferase activity 2 days after infection
row,Compound,EC50 [nM]
1,C=CS(=O)(=O)NC(=O)CCCNC(=O)c1ccc(Nc2nc(NC3(c4ccc(Cl)cc4)CC3)nc(OCC(F)(F)F)n2)cc1 [Example 2017],3.2
2,C=C[C@@H]1C[C@]1(NC(=O)CCCNC(=O)c1ccc(Nc2nc(NC3(c4ccc(Cl)cc4)CC3)nc(OCC(F)(F)F)n2)cc1)C(=O)NS(=O)(=O)C1CC1 [Example 2032],1.3
3,O=C(CCCNC(=O)c1ccc(Nc2nc(NC3(c4ccc(Cl)cc4)CC3)nc(OCC(F)(F)F)n2)cc1)N[C@]1(C(=O)NS(=O)(=O)C2(C(F)F)CC2)C[C@H]1C1CC1 [Example 2045],0.72
4,O=C(CCCNC(=O)c1ccc(Nc2nc(NC3(c4ccc(Cl)cc4)CC3)nc(OCC(F)(F)F)n2)cc1)NCCC(=O)NS(=O)(=O)C1CCC1 [Example 2063],37.9

# Same assay, conditions: Hepatitis C virus, genotype 1b, Huh-7, 48 h, HCV pseudoparticles (genotype 1b), luciferase activity 2 days after infection, class
row,Compound,EC50 [nM]
1,CCS(=O)(=O)NC(=O)CCCCNC(=O)c1ccc(Nc2nc(NC3(c4ccc(Cl)cc4)CC3)nc(OCC(F)(F)F)n2)cc1 [Example 2014],0.5 to 100
2,C=CS(=O)(=O)NC(=O)CCCCNC(=O)c1ccc(Nc2nc(NC3(c4ccc(Cl)cc4)CC3)nc(OCC(F)(F)F)n2)cc1 [Example 2015],0.5 to 100
3,C=CS(=O)(=O)NC(=O)CCNC(=O)c1ccc(Nc2nc(NC3(c4ccc(Cl)cc4)CC3)nc(OCC(F)(F)F)n2)cc1 [Example 2016],0.5 to 100
4,C=CS(=O)(=O)NC(=O)CCCNC(=O)c1ccc(Nc2nc(NC3(c4ccc(Cl)cc4)CC3)nc(OCC(F)(F)F)n2)cc1 [Example 2017],0.5 to 100
5,CS(=O)(=O)NC(=O)CCNC(=O)c1ccc(Nc2nc(NC3(c4ccc(Cl)cc4)CC3)nc(OCC(F)(F)F)n2)cc1 [Example 2018],0.5 to 100
6,CS(=O)(=O)NC(=O)CCCNC(=O)c1ccc(Nc2nc(NC3(c4ccc(Cl)cc4)CC3)nc(OCC(F)(F)F)n2)cc1 [Example 2019],0.5 to 100
7,CC(C)S(=O)(=O)NC(=O)CCNC(=O)c1ccc(Nc2nc(NC3(c4ccc(Cl)cc4)CC3)nc(OCC(F)(F)F)n2)cc1 [Example 2020],0.5 to 100
8,O=C(CCNC(=O)c1ccc(Nc2nc(NC3(c4ccc(Cl)cc4)CC3)nc(OCC(F)(F)F)n2)cc1)NS(=O)(=O)C1CC1 [Example 2021],0.5 to 100
9,CN(C)S(=O)(=O)NC(=O)CCNC(=O)c1ccc(Nc2nc(NC3(c4ccc(Cl)cc4)CC3)nc(OCC(F)(F)F)n2)cc1 [Example 2022],0.5 to 100
10,CC(C)S(=O)(=O)NC(=O)CCCNC(=O)c1ccc(Nc2nc(NC3(c4ccc(Cl)cc4)CC3)nc(OCC(F)(F)F)n2)cc1 [Example 2023],0.5 to 100
11,O=C(CCCNC(=O)c1ccc(Nc2nc(NC3(c4ccc(Cl)cc4)CC3)nc(OCC(F)(F)F)n2)cc1)NS(=O)(=O)C1CC1 [Example 2024],0.5 to 100
12,CN(C)S(=O)(=O)NC(=O)CCCNC(=O)c1ccc(Nc2nc(NC3(c4ccc(Cl)cc4)CC3)nc(OCC(F)(F)F)n2)cc1 [Example 2025],0.5 to 100
13,C=C[C@@H]1C[C@]1(NC(=O)CCCCNC(=O)c1ccc(Nc2nc(NC3(c4ccc(Cl)cc4)CC3)nc(OCC(F)(F)F)n2)cc1)C(=O)NS(=O)(=O)C1CCC1 [Example 2026],0.5 to 100
14,C=C[C@@H]1C[C@]1(NC(=O)CCCCNC(=O)c1ccc(Nc2nc(NC3(c4ccc(Cl)cc4)CC3)nc(OCC(F)(F)F)n2)cc1)C(=O)NS(=O)(=O)C(C)(C)C [Example 2027],0.5 to 100
15,O=C(CCCCNC(=O)c1ccc(Nc2nc(NC3(c4ccc(Cl)cc4)CC3)nc(OCC(F)(F)F)n2)cc1)NS(=O)(=O)C1CCC1 [Example 2028],0.5 to 100
16,O=C(CCCCNC(=O)c1ccc(Nc2nc(NC3(c4ccc(Cl)cc4)CC3)nc(OCC(F)(F)F)n2)cc1)NC1(C(=O)NS(=O)(=O)C2CC2)CC1 [Example 2029],0.5 to 100
17,CN(C)S(=O)(=O)NC(=O)CCCCNC(=O)c1ccc(Nc2nc(NC3(c4ccc(Cl)cc4)CC3)nc(OCC(F)(F)F)n2)cc1 [Example 2030],0.5 to 100
18,C=C[C@@H]1C[C@]1(NC(=O)CCCCNC(=O)c1ccc(Nc2nc(NC3(c4ccc(Cl)cc4)CC3)nc(OCC(F)(F)F)n2)cc1)C(=O)NS(=O)(=O)C1CC1 [Example 2031],0.5 to 100
19,C=C[C@@H]1C[C@]1(NC(=O)CCCNC(=O)c1ccc(Nc2nc(NC3(c4ccc(Cl)cc4)CC3)nc(OCC(F)(F)F)n2)cc1)C(=O)NS(=O)(=O)C1CC1 [Example 2032],0.5 to 100
20,O=C(CCCNC(=O)c1ccc(Nc2nc(NC3(c4ccc(Cl)cc4)CC3)nc(OCC(F)(F)F)n2)cc1)NC1(C(=O)NS(=O)(=O)C2CC2)CC1 [Example 2033],0.5 to 100
21,C=C[C@@H]1C[C@]1(NC(=O)CCCNC(=O)c1ccc(Nc2nc(NC3(c4ccc(Cl)cc4)CC3)nc(OCC(F)(F)F)n2)cc1)C(=O)NS(=O)(=O)C(C)(C)C [Example 2035],0.5 to 100
22,O=C(CCCNC(=O)c1ccc(Nc2nc(NC3(c4ccc(Cl)cc4)CC3)nc(OCC(F)(F)F)n2)cc1)N[C@]1(C(=O)NS(=O)(=O)C2CC2)C[C@H]1C1CC1 [Example 2036],0.5 to 100
23,O=C(CCCNC(=O)c1ccc(Nc2nc(NC3(c4ccc(Cl)cc4)CC3)nc(OCC(F)(F)F)n2)cc1)N[C@]1(C(=O)NS(=O)(=O)C2CC2)C[C@H]1C1CC1(F)F (some centres unmarked) [Example 2037],0.5 to 100
24,O=C(CCCNC(=O)c1ccc(Nc2nc(NC3(c4ccc(Cl)cc4)CC3)nc(OCC(F)(F)F)n2)cc1)N[C@]1(C(=O)NS(=O)(=O)C2CC2)C[C@H]1C(F)F [Example 2038],0.5 to 100
25,"CS(=O)(=O)NC(=O)[C@@]1(NC(=O)CCCNC(=O)c2ccc(Nc3nc(NC4(c5ccc(Cl)cc5)CC4)nc(OCC(F)(F)F)n3)cc2)C[C@H]1C1CC1 [Example 2039, 4-(4-(1-(4-chlorophenyl)cyclopropylamino)-6-(2,2,2-trifluoroethoxy)-1,3,5-triazin-2-ylamino)-N-(4-((1S,2R)-2-(methylsulfonylcarbamoyl)bi(cyclopropan)-2-ylamino)-4-oxobutyl)benzamide]",0.5 to 100

row,Compound,EC50 [nM]
1,C=CS(=O)(=O)NC(=O)[C@@]1(NC(=O)CCCNC(=O)c2ccc(Nc3nc(NC4(c5ccc(Cl)cc5)CC4)nc(OCC(F)(F)F)n3)cc2)C[C@H]1C1CC1 [Example 2040],0.5 to 100
2,CC(C)S(=O)(=O)NC(=O)[C@@]1(NC(=O)CCCNC(=O)c2ccc(Nc3nc(NC4(c5ccc(Cl)cc5)CC4)nc(OCC(F)(F)F)n3)cc2)C[C@H]1C1CC1 [Example 2041],0.5 to 100
3,O=C(CCCNC(=O)c1ccc(Nc2nc(NC3(c4ccc(Cl)cc4)CC3)nc(OCC(F)(F)F)n2)cc1)N[C@]1(C(=O)NS(=O)(=O)C2CCC2)C[C@H]1C1CC1 [Example 2042],0.5 to 100
4,CN(C)S(=O)(=O)NC(=O)[C@@]1(NC(=O)CCCNC(=O)c2ccc(Nc3nc(NC4(c5ccc(Cl)cc5)CC4)nc(OCC(F)(F)F)n3)cc2)C[C@H]1C1CC1 [Example 2043],0.5 to 100
5,O=C(CCCNC(=O)c1ccc(Nc2nc(NC3(c4ccc(Cl)cc4)CC3)nc(OCC(F)(F)F)n2)cc1)N[C@]1(C(=O)NS(=O)(=O)C2(F)CC2)C[C@H]1C1CC1 [Example 2044],0.5 to 100
6,O=C(CCCNC(=O)c1ccc(Nc2nc(NC3(c4ccc(Cl)cc4)CC3)nc(OCC(F)(F)F)n2)cc1)N[C@]1(C(=O)NS(=O)(=O)C2(C(F)F)CC2)C[C@H]1C1CC1 [Example 2045],0.5 to 100
7,CS(=O)(=O)NC(=O)[C@@]1(NC(=O)CCCNC(=O)c2ccc(Nc3nc(NC4(c5ccc(Cl)cc5)CC4)nc(OCC(F)(F)F)n3)cc2)C[C@H]1C1CC1(F)F (some centres unmarked) [Example 2046],0.5 to 100
8,CCS(=O)(=O)NC(=O)[C@@]1(NC(=O)CCCNC(=O)c2ccc(Nc3nc(NC4(c5ccc(Cl)cc5)CC4)nc(OCC(F)(F)F)n3)cc2)C[C@H]1C1CC1(F)F (some centres unmarked) [Example 2047],0.5 to 100
9,CC(C)S(=O)(=O)NC(=O)[C@@]1(NC(=O)CCCNC(=O)c2ccc(Nc3nc(NC4(c5ccc(Cl)cc5)CC4)nc(OCC(F)(F)F)n3)cc2)C[C@H]1C1CC1(F)F (some centres unmarked) [Example 2048],0.5 to 100
10,CN(C)S(=O)(=O)NC(=O)[C@@]1(NC(=O)CCCNC(=O)c2ccc(Nc3nc(NC4(c5ccc(Cl)cc5)CC4)nc(OCC(F)(F)F)n3)cc2)C[C@H]1C1CC1(F)F (some centres unmarked) [Example 2049],0.5 to 100
11,CC(C)(C)S(=O)(=O)NC(=O)[C@@]1(NC(=O)CCCNC(=O)c2ccc(Nc3nc(NC4(c5ccc(Cl)cc5)CC4)nc(OCC(F)(F)F)n3)cc2)C[C@H]1C1CC1(F)F (some centres unmarked) [Example 2050],0.5 to 100
12,"C[C@@H](NC(=O)CCCNC(=O)c1ccc(Nc2nc(NC3(c4ccc(Cl)cc4)CC3)nc(OCC(F)(F)F)n2)cc1)C(=O)NS(C)(=O)=O [Example 2051, (R)-4-(4-(1-(4-chlorophenyl)cyclopropylamino)-6-(2,2,2-trifluoroethoxy)-1,3,5-triazin-2-ylamino)-N-(4-(1-(methylsulfonamido)-1-oxopropan-2-ylamino)-4-oxobutyl)benzamide]",0.5 to 100
13,CC(C)S(=O)(=O)NC(=O)[C@@H](C)NC(=O)CCCNC(=O)c1ccc(Nc2nc(NC3(c4ccc(Cl)cc4)CC3)nc(OCC(F)(F)F)n2)cc1 [Example 2052],0.5 to 100
14,C[C@@H](NC(=O)CCCNC(=O)c1ccc(Nc2nc(NC3(c4ccc(Cl)cc4)CC3)nc(OCC(F)(F)F)n2)cc1)C(=O)NS(=O)(=O)C1CC1 [Example 2053],0.5 to 100
15,C[C@H](NC(=O)CCCNC(=O)c1ccc(Nc2nc(NC3(c4ccc(Cl)cc4)CC3)nc(OCC(F)(F)F)n2)cc1)C(=O)NS(C)(=O)=O [Example 2054],0.5 to 100
16,CC(C)S(=O)(=O)NC(=O)[C@H](C)NC(=O)CCCNC(=O)c1ccc(Nc2nc(NC3(c4ccc(Cl)cc4)CC3)nc(OCC(F)(F)F)n2)cc1 [Example 2055],0.5 to 100
17,C[C@H](NC(=O)CCCNC(=O)c1ccc(Nc2nc(NC3(c4ccc(Cl)cc4)CC3)nc(OCC(F)(F)F)n2)cc1)C(=O)NS(=O)(=O)N(C)C [Example 2056],0.5 to 100
18,C[C@H](NC(=O)CCCNC(=O)c1ccc(Nc2nc(NC3(c4ccc(Cl)cc4)CC3)nc(OCC(F)(F)F)n2)cc1)C(=O)NS(=O)(=O)C1CC1 [Example 2057],0.5 to 100
19,C[C@H](NC(=O)CCCNC(=O)c1ccc(Nc2nc(NC3(c4ccc(Cl)cc4)CC3)nc(OCC(F)(F)F)n2)cc1)C(=O)NS(=O)(=O)C1CCC1 [Example 2058],0.5 to 100
20,CS(=O)(=O)NC(=O)CCNC(=O)CCCNC(=O)c1ccc(Nc2nc(NC3(c4ccc(Cl)cc4)CC3)nc(OCC(F)(F)F)n2)cc1 [Example 2059],0.5 to 100
21,CN(C)S(=O)(=O)NC(=O)CCNC(=O)CCCNC(=O)c1ccc(Nc2nc(NC3(c4ccc(Cl)cc4)CC3)nc(OCC(F)(F)F)n2)cc1 [Example 2060],0.5 to 100
22,CC(C)S(=O)(=O)NC(=O)CCNC(=O)CCCNC(=O)c1ccc(Nc2nc(NC3(c4ccc(Cl)cc4)CC3)nc(OCC(F)(F)F)n2)cc1 [Example 2061],0.5 to 100
23,O=C(CCCNC(=O)c1ccc(Nc2nc(NC3(c4ccc(Cl)cc4)CC3)nc(OCC(F)(F)F)n2)cc1)NCCC(=O)NS(=O)(=O)C1CC1 [Example 2062],0.5 to 100
24,O=C(CCCNC(=O)c1ccc(Nc2nc(NC3(c4ccc(Cl)cc4)CC3)nc(OCC(F)(F)F)n2)cc1)NCCC(=O)NS(=O)(=O)C1CCC1 [Example 2063],0.5 to 100
